Test results from the kinase profiling compilation of Christmann-Franck et al. (2016).
Values joined by “and” are separate entries in the source; they are usually repeats but may differ in a detail not shown here. Identical values can stand only once.

Tests used:
Test in all cases: radiometric filter-binding kinase assay, Kinase HotSpot
Settings in all cases: compound 0.5 µM; ATP 10 µM
[1] = molecular target: WNK3 (human) (UniProt Q9BYP7)
[2] = molecular target: AKT3 (human) (UniProt Q9Y243)
[3] = molecular target: MARK4 (human) (UniProt Q96L34)
[4] = molecular target: MST4 (human) (UniProt Q9P289)
[5] = molecular target: PRKG1 (human) (UniProt Q13976)
[6] = molecular target: PRKCH (human) (UniProt P24723)
[7] = molecular target: ERBB2 (human) (UniProt P04626)
[8] = molecular target: SIK2 (human) (UniProt Q9H0K1)
[9] = molecular target: MAP3K8 (human) (UniProt P41279)
[10] = molecular target: CSNK1D (human) (UniProt P48730)
[11] = molecular target: LYN (human) (UniProt P07948)
[12] = molecular target: TEC (human) (UniProt P42680)
[13] = molecular target: STK4 (human) (UniProt Q13043)
[14] = molecular target: DYRK1A (human) (UniProt Q13627)
[15] = molecular target: CSF1R (human) (UniProt P07333)
[16] = molecular target: SGK2 (human) (UniProt Q9HBY8)
[17] = molecular target: CDK5 CDK5R1 p35 (human) (UniProt Q00535+Q15078)
[18] = molecular target: FGFR3 (human) (UniProt P22607)
Chain of FGFR3 (human) (P22607 whole entry, looked up): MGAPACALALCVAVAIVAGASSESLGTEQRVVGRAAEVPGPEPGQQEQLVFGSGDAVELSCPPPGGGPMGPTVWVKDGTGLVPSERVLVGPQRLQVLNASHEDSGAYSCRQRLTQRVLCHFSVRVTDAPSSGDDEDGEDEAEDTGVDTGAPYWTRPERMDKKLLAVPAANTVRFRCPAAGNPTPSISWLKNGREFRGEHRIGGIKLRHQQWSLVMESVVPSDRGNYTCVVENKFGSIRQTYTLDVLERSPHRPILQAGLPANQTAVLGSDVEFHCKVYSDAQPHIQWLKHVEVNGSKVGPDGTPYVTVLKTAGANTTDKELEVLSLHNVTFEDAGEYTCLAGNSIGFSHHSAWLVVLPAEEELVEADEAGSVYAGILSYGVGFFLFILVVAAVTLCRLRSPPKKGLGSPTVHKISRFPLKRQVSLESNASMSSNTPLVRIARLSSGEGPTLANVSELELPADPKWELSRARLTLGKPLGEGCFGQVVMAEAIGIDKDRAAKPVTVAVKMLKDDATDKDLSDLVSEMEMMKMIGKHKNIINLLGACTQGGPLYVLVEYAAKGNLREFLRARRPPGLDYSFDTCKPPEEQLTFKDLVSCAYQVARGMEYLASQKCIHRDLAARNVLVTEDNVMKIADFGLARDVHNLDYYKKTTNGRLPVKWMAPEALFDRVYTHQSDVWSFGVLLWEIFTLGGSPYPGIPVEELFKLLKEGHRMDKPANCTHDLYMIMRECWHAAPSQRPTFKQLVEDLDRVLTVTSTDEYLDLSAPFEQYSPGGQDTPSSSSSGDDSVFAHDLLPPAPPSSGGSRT

[19] = molecular target: ROCK2 (human) (UniProt O75116)
Chain of ROCK2 (human) (O75116 whole entry, looked up): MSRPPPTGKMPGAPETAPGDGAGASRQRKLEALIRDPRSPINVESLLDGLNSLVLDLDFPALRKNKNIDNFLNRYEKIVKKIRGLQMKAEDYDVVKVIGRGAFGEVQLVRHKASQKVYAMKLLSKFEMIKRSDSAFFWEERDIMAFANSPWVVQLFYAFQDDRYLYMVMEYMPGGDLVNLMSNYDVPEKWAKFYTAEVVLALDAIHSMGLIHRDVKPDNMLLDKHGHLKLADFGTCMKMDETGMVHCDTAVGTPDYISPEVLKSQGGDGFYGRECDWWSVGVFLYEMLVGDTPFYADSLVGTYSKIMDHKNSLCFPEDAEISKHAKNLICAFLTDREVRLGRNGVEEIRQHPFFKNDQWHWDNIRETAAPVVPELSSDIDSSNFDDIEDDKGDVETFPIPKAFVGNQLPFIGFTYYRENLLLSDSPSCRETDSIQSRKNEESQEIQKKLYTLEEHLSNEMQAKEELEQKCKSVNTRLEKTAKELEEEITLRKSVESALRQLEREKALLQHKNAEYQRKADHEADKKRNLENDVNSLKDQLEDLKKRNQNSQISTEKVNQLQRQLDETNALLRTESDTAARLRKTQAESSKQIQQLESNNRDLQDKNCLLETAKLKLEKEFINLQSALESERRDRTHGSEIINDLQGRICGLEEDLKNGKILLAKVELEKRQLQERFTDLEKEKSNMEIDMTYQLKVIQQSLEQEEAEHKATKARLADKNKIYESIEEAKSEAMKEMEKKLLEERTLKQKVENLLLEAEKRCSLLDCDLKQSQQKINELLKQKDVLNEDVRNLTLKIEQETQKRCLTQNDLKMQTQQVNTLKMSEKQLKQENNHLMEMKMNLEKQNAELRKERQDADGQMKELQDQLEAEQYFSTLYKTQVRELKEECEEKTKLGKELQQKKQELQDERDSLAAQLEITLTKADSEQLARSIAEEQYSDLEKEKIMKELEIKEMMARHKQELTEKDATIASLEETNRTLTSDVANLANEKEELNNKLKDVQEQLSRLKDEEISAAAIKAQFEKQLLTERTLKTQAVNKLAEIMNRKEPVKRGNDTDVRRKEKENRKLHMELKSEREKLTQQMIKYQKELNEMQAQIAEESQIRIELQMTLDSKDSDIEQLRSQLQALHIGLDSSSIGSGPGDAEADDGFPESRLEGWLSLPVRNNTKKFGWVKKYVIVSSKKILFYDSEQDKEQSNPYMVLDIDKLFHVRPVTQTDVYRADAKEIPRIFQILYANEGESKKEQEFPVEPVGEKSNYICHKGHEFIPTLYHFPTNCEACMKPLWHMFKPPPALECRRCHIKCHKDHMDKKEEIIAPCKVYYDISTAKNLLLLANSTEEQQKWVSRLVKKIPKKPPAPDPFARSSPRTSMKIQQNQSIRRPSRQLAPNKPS

[20] = molecular target: PRKD1 (human) (UniProt Q15139)
[21] = molecular target: ACVR1B (human) (UniProt P36896)
[22] = molecular target: PRKCZ (human) (UniProt Q05513)
[23] = molecular target: WEE1 (human) (UniProt P30291)
[24] = molecular target: PHKG1 (human) (UniProt Q16816)
[25] = molecular target: PLK1 (human) (UniProt P53350)
[26] = molecular target: OXSR1 (human) (UniProt O95747)
Chain of OXSR1 (human) (O95747 whole entry, looked up): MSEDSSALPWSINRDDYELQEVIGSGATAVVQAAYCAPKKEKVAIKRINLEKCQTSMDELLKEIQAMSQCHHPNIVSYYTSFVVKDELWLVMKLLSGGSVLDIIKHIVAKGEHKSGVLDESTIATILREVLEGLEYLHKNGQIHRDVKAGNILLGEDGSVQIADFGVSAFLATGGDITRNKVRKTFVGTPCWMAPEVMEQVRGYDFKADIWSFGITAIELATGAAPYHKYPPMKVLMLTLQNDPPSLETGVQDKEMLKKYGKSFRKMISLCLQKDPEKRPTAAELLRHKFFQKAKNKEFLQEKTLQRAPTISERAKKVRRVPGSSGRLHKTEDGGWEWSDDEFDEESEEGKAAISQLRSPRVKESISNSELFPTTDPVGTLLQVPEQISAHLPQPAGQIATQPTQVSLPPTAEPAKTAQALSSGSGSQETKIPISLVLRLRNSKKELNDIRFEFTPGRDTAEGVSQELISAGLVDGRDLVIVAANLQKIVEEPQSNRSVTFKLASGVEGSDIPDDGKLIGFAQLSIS

[27] = molecular target: FGFR2 (human) (UniProt P21802)
[28] = molecular target: CLK4 (human) (UniProt Q9HAZ1)
[29] = molecular target: MAPK3 (human) (UniProt P27361)
Chain of MAPK3 (human) (P27361 whole entry, looked up): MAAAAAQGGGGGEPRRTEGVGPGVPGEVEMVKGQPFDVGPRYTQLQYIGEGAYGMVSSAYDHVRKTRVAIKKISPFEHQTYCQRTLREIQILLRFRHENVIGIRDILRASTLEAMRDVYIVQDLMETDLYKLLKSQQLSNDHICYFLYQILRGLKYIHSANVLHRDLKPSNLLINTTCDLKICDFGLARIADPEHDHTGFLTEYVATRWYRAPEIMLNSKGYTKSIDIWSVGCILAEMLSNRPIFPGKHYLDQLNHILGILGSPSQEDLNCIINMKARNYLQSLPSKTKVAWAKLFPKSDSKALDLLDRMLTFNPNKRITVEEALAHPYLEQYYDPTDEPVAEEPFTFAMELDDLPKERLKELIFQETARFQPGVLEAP

[30] = molecular target: SGK3 (human) (UniProt Q96BR1)
Chain of SGK3 (human) (Q96BR1 whole entry, looked up): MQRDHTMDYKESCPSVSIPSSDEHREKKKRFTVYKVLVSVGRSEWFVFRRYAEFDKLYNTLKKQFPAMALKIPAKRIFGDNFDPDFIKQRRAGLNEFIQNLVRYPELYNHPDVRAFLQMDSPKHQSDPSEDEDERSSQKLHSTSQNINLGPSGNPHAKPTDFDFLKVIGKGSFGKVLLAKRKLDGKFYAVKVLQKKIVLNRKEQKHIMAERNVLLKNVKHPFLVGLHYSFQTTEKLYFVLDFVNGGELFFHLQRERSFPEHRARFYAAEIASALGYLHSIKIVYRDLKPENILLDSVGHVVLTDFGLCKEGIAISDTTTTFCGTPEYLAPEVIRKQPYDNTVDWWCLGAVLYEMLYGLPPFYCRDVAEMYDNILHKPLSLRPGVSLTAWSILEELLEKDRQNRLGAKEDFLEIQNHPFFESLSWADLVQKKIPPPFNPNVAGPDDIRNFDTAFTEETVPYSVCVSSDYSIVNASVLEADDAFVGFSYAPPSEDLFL

[31] = molecular target: ITK (human) (UniProt Q08881)
[32] = molecular target: STK16 (human) (UniProt O75716)
[33] = molecular target: FGFR1 (human) (UniProt P11362)
[34] = molecular target: MARK3 (human) (UniProt P27448)
[35] = molecular target: LCK (human) (UniProt P06239)
Chain of LCK (human) (P06239 whole entry, looked up): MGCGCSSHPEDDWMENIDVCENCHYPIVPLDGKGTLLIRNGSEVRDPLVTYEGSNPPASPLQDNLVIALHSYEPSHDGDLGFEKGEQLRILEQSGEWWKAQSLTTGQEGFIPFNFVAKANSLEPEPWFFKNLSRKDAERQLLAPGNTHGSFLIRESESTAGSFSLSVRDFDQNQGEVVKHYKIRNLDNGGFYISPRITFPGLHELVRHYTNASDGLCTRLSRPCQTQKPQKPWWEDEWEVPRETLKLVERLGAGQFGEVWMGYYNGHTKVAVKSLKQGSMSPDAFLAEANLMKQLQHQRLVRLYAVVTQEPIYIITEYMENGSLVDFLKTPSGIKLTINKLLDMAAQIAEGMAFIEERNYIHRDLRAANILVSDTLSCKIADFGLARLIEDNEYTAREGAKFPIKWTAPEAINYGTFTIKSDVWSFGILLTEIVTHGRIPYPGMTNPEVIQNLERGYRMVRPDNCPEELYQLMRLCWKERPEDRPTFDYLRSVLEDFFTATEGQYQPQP

[36] = molecular target: BMX (human) (UniProt P51813)
[37] = molecular target: RPS6KA6 KD1 KD2 (human) (UniProt Q9UK32)
[38] = molecular target: RPS6KA1 KD1 KD2 (human) (UniProt Q15418)
[39] = molecular target: PTK2B (human) (UniProt Q14289)
[40] = molecular target: CAMKK1 (human) (UniProt Q8N5S9)
[41] = molecular target: EPHB4 (human) (UniProt P54760)
[42] = molecular target: MAPK11 (human) (UniProt Q15759)
Chain of MAPK11 (human) (Q15759 whole entry, looked up): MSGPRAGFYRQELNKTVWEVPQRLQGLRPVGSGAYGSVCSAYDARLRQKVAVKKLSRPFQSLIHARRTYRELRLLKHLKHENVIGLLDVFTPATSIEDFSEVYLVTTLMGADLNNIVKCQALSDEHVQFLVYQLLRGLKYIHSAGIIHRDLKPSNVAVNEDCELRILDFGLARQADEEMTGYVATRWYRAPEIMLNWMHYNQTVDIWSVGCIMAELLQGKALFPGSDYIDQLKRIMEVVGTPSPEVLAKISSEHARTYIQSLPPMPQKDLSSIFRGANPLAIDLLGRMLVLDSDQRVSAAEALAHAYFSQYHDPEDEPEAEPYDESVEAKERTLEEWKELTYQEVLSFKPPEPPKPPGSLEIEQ

Chain of AKT3 (human) (Q9Y243 whole entry, looked up): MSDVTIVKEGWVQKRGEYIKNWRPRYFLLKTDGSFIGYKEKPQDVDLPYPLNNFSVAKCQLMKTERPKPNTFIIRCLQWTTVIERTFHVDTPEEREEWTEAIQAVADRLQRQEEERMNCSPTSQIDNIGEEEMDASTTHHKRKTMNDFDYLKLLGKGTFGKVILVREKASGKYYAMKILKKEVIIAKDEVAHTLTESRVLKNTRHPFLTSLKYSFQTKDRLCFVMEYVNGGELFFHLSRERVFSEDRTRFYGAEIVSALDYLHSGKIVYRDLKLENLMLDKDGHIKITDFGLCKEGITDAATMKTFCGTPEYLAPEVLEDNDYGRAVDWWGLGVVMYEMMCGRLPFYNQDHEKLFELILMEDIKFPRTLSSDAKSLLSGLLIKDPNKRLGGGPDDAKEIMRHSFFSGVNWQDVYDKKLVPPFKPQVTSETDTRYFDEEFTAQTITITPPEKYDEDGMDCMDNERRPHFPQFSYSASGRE

O=C1NC(=O)C(c2cn(CCCn3ccnc3)c3ccccc23)=C1Nc1ccccc1
residual activity [1]: 100% | residual activity [2]: 71% | residual activity [3]: 92.6% | residual activity [4]: 22.2% | residual activity [5]: 88.8% and 89.3% | residual activity [6]: 29.7% | residual activity [7]: 93.6% | residual activity [8]: 90.3% | residual activity [9]: 100% | residual activity [10]: 102% | residual activity [11]: 103% and 96.4% | residual activity [12]: 162% | residual activity [13]: 40.9% | residual activity [14]: 30.8% | residual activity [15]: 97.5% | residual activity [16]: 82.4% | residual activity [17]: 91.4% | residual activity [18]: 100% | residual activity [19]: 100% | residual activity [20]: 94.4% | residual activity [21]: 96.2% | residual activity [22]: 99.6% | residual activity [23]: 95.8% | residual activity [24]: 64.6% | residual activity [25]: 99.5% | residual activity [26]: 97.2% | residual activity [27]: 103% | residual activity [28]: 38.9% | residual activity [29]: 103% | residual activity [30]: 89.9% | residual activity [31]: 93.9% | residual activity [32]: 110% | residual activity [33]: 78.5% | residual activity [34]: 92.1% | residual activity [35]: 99.4% | residual activity [36]: 90% | residual activity [37]: 2% | residual activity [38]: 7.54% | residual activity [39]: 93.3% | residual activity [40]: 96.3% | residual activity [41]: 87.9% | residual activity [42]: 111%

O=c1cc(N2CCOCC2)oc2c1ccc1ccccc12
residual activity [1]: 97.5% | residual activity [2]: 98.3% | residual activity [3]: 102% | residual activity [4]: 93.2% | residual activity [5]: 84.5% and 94.6% | residual activity [6]: 94.7% | residual activity [7]: 105% | residual activity [8]: 126% | residual activity [9]: 98.3% | residual activity [10]: 97.9% | residual activity [11]: 102% and 104% | residual activity [12]: 150% | residual activity [13]: 99.5% | residual activity [14]: 79% | residual activity [15]: 103% | residual activity [16]: 102% | residual activity [17]: 96.7% | residual activity [18]: 98.2% | residual activity [19]: 95.9% | residual activity [20]: 102% | residual activity [21]: 103% | residual activity [22]: 106% | residual activity [23]: 101% | residual activity [24]: 98.2% | residual activity [25]: 68.4% | residual activity [26]: 108% | residual activity [27]: 107% | residual activity [28]: 101% | residual activity [29]: 106% | residual activity [30]: 106% | residual activity [31]: 100% | residual activity [32]: 99% | residual activity [33]: 92.1% | residual activity [34]: 110% | residual activity [35]: 99.2% | residual activity [36]: 92.7% | residual activity [37]: 95.4% | residual activity [38]: 92% | residual activity [39]: 94.3% | residual activity [40]: 112% | residual activity [41]: 96.3% | residual activity [42]: 97.9%

O=C1NC(=O)/C(=C/c2ccc3c(c2)OC(F)(F)O3)S1
residual activity [1]: 91.5% | residual activity [2]: 103% | residual activity [3]: 97.8% | residual activity [4]: 86.8% | residual activity [5]: 109% and 95.6% | residual activity [6]: 92.7% | residual activity [7]: 102% | residual activity [8]: 101% | residual activity [9]: 93% | residual activity [10]: 98.9% | residual activity [11]: 98.1% and 99.9% | residual activity [12]: 108% | residual activity [13]: 93.3% | residual activity [14]: 84.6% | residual activity [15]: 106% | residual activity [16]: 82.2% | residual activity [17]: 103% | residual activity [18]: 96.4% | residual activity [19]: 92.4% | residual activity [20]: 94.8% | residual activity [21]: 99.4% | residual activity [22]: 103% | residual activity [23]: 88.8% | residual activity [24]: 94.2% | residual activity [25]: 92.9% | residual activity [26]: 97.1% | residual activity [27]: 97.6% | residual activity [28]: 88.8% | residual activity [29]: 91.6% | residual activity [30]: 94.7% | residual activity [31]: 92.9% | residual activity [32]: 91% | residual activity [33]: 94.3% | residual activity [34]: 92.3% | residual activity [35]: 98.3% | residual activity [36]: 99.6% | residual activity [37]: 96.5% | residual activity [38]: 71.1% | residual activity [39]: 110% | residual activity [40]: 86% | residual activity [41]: 100% | residual activity [42]: 95.7%

N#C/C(=C(/N)Sc1ccc(N)cc1)c1ccccc1C(F)(F)F
residual activity [1]: 94.9% | residual activity [2]: 96.2% | residual activity [3]: 101% | residual activity [4]: 97.2% | residual activity [5]: 100% and 98.8% | residual activity [6]: 96.4% | residual activity [7]: 93% | residual activity [8]: 101% | residual activity [9]: 96.5% | residual activity [10]: 106% | residual activity [11]: 107% and 98.5% | residual activity [12]: 109% | residual activity [13]: 89.7% | residual activity [14]: 93.9% | residual activity [15]: 101% | residual activity [16]: 99% | residual activity [17]: 103% | residual activity [18]: 98.5% | residual activity [19]: 100% | residual activity [20]: 103% | residual activity [21]: 101% | residual activity [22]: 106% | residual activity [23]: 73.8% | residual activity [24]: 95.8% | residual activity [25]: 92.6% | residual activity [26]: 101% | residual activity [27]: 101% | residual activity [28]: 93.4% | residual activity [29]: 116% | residual activity [30]: 105% | residual activity [31]: 97.4% | residual activity [32]: 98.4% | residual activity [33]: 108% | residual activity [34]: 107% | residual activity [35]: 107% | residual activity [36]: 99.7% | residual activity [37]: 83.9% | residual activity [38]: 88.7% | residual activity [39]: 105% | residual activity [40]: 117% | residual activity [41]: 102% | residual activity [42]: 112%
